Test results published in ChEMBL document CHEMBL1201862, “PubChem BioAssay data set” (2004).
Where “and” joins values, the source holds several entries; their conditions need not be identical. Equal entries are not always repeated.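 Assay format: 96-well plates, 48-hour exposure. Abbreviation: GI50, concentration required for 50% inhibition of growth.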 Calls of active or inactive are those of the source. Rule as the data show it: active = GI50 up to about 1.1 µM and inactive = higher.

Tests used:
Test in all cases: NCI tumour cell line growth inhibition, 48 h
SW-620 = system: SW-620
IGROV-1 = system: IGROV-1
COLO 205 = system: COLO 205
786-0 = system: 786-0
SK-MEL-2 = system: SK-MEL-2
MDA-MB-435 = system: MDA-MB-435
HOP-62 = system: HOP-62
OVCAR-4 = system: OVCAR-4
NCI-H460 = system: NCI-H460
ACHN = system: ACHN
NCI-H23 = system: NCI-H23
TK-10 = system: TK-10
A498 = system: A498
KM12 = system: KM12
MCF7 = system: MCF7
SF-539 = system: SF-539
M14 = system: M14
HCT-15 = system: HCT-15
SK-MEL-5 = system: SK-MEL-5
HL-60 = system: HL-60
HCT-116 = system: HCT-116
SNB-75 = system: SNB-75
CCRF-CEM = system: CCRF-CEM
HT-29 = system: HT-29
DU-145 = system: DU-145
UO-31 = system: UO-31
K562 = system: K562
BT-549 = system: BT-549
UACC-62 = system: UACC-62
EKVX = system: EKVX
OVCAR-3 = system: OVCAR-3
SR = system: SR
RPMI-8226 = system: RPMI-8226
SF-268 = system: SF-268
MDA-MB-231 = system: MDA-MB-231
NCI-H226 = system: NCI-H226
NCI/ADR-RES = system: NCI/ADR-RES
SN12C = system: SN12C
LOX IMVI = system: LOX IMVI
MOLT-4 = system: MOLT-4
SF-295 = system: SF-295
UACC-257 = system: UACC-257
T47D = system: T47D
SK-MEL-28 = system: SK-MEL-28
HCC 2998 = system: HCC 2998
U-251 = system: U-251
RXF 393 = system: RXF 393
CAKI-1 = system: CAKI-1
OVCAR-5 = system: OVCAR-5
OVCAR-8 = system: OVCAR-8
NCI-H522 = system: NCI-H522
PC-3 = system: PC-3
A549 = system: A549
SK-OV-3 = system: SK-OV-3
SNB-19 = system: SNB-19
Malme-3M = system: Malme-3M
HOP-92 = system: HOP-92
Hs-578T = system: Hs-578T

Measured: GI50

N#Cc1nc(COCCOCc2ccc(F)cc2)oc1N
> 100 µM: HCT-15
inactive: SW-620 > 100 µM | IGROV-1 > 100 µM | COLO 205 > 100 µM | 786-0 > 100 µM | SK-MEL-2 > 100 µM | MDA-MB-435 > 100 µM | HOP-62 > 100 µM | OVCAR-4 > 100 µM | NCI-H460 > 100 µM | ACHN > 100 µM | NCI-H23 > 100 µM | TK-10 > 100 µM | A498 > 100 µM | KM12 > 100 µM | MCF7 > 100 µM | SF-539 > 100 µM | M14 > 100 µM | SK-MEL-5 > 100 µM | HL-60 > 100 µM | HCT-116 > 100 µM | SNB-75 > 100 µM | CCRF-CEM 64.6 µM | HT-29 > 100 µM | DU-145 > 100 µM | UO-31 50.4 µM | K562 > 100 µM | BT-549 > 100 µM | UACC-62 > 100 µM | EKVX > 100 µM | OVCAR-3 > 100 µM | SR > 100 µM | RPMI-8226 > 100 µM | SF-268 > 100 µM | MDA-MB-231 > 100 µM | NCI-H226 > 100 µM | NCI/ADR-RES > 100 µM | SN12C > 100 µM | LOX IMVI > 100 µM | MOLT-4 > 100 µM | SF-295 > 100 µM | UACC-257 > 100 µM | T47D > 100 µM | SK-MEL-28 > 100 µM | HCC 2998 > 100 µM | U-251 > 100 µM | RXF 393 > 100 µM | CAKI-1 > 100 µM | OVCAR-5 > 100 µM | OVCAR-8 > 100 µM | NCI-H522 29 µM | PC-3 > 100 µM | A549 > 100 µM | SK-OV-3 > 100 µM

Oc1cn(-c2ccc(Cl)cc2)nc1-c1nnc(-c2ccccc2)o1
0.262 µM: HCT-15
inactive: SW-620 1.94 µM | COLO 205 1.87 µM | SK-MEL-2 16.9 µM | OVCAR-4 19.5 µM | SNB-19 3.03 µM | A498 9.4 µM | SNB-75 > 22.6 µM | HT-29 2.83 µM | DU-145 2.99 µM | Malme-3M 8.34 µM | UACC-62 2.09 µM | EKVX 1.16 µM | MDA-MB-231 6.01 µM | SN12C 1.43 µM | HOP-92 18.8 µM | UACC-257 1.63 µM | T47D 3.86 µM | SK-MEL-28 15.2 µM | RXF 393 1.14 µM | OVCAR-5 1.58 µM | PC-3 1.43 µM | SK-OV-3 12.9 µM
active: IGROV-1 0.989 µM | MDA-MB-435 0.152 µM | HOP-62 0.132 µM | NCI-H460 0.236 µM | NCI-H23 0.155 µM | TK-10 0.17 µM | KM12 0.0847 µM | MCF7 0.263 µM | SF-539 0.411 µM | SK-MEL-5 0.268 µM | HL-60 0.181 µM | HCT-116 0.0769 µM | UO-31 0.726 µM | K562 0.122 µM | OVCAR-3 0.404 µM | RPMI-8226 0.728 µM | SF-268 0.34 µM | NCI-H226 0.931 µM | NCI/ADR-RES 0.215 µM | MOLT-4 0.193 µM | SF-295 0.102 µM | U-251 0.2 µM | Hs-578T 0.484 µM | CAKI-1 0.359 µM | OVCAR-8 0.277 µM | NCI-H522 1.1 µM | A549 0.118 µM

COC(=O)CCc1cc(OC)c2c(c1)C(C(=O)OC)C(c1ccc(OC)c(OC)c1)O2 (centres undefined)
inactive: OVCAR-4 > 100 µM and 58.5 µM | ACHN 59.2 µM | NCI-H23 > 100 µM and > 71 µM | TK-10 > 100 µM and > 91.4 µM | SNB-75 10.6 µM | HT-29 5.32 µM | BT-549 22.6 µM and 42.4 µM | EKVX > 52.5 µM | SN12C 62.4 µM | HOP-92 > 95.7 µM | UACC-257 > 100 µM | T47D 24.8 µM | HCC 2998 60.5 µM | RXF 393 34.9 µM | OVCAR-5 > 79.1 µM
